Consider 2 compounds from US20110319351A1 (priority 2006, published 2011).

Where “and” joins values, the source holds several entries; their conditions need not be identical. Identical values can stand only once. Entries after “also recorded” stand apart in the source; their conditions may differ. Like-named read-outs stand apart in the source and are kept apart here.

As a reminder, the IC50 is the concentration at which inhibition is half-maximal.

The test system of one series is Daudi cells. The series can be described thus: Induction of apoptosis, annexin V-FITC/propidium iodide flow cytometry, Daudi. The series is classed as cell-based, human. The following applies: for highest percentage of apoptosis / increase in apoptosis vs untreated control: Daudi cells; for highest percentage of apoptosis: 500 nM, n=4; for increase in apoptosis vs untreated control: increasing concentration; for IC50: Homo sapiens, Daudi. As for the experimental part:
(§1) It was determined that the cardiac glycosides (e.g., digoxin and ouabain) selectively induce apoptosis in cancer cells relative to normal non-transformed cells. Through the experiments, some cells were exposed to ultraviolet irradiation as a positive control for induction of apoptosis, whereas cells cultured under normal conditions (95% […]/5% CO2 at 37° C.) acted as the negative control (see Methods). The percentage of counted cells in the lower and upper right hand quadrants are indicative of cells in early and late apoptosis, respectively. The viable cells are at the lower left quadrant. The figures that follow are summaries of data stemming from analysis of percent of cell count undergoing apoptosis as measured in FIG. 1.
(§2) Cell lines used in this study included: Jurkat E6-1, an acute human T-lymphoblastic leukemia cell line generated from a person; Daudi, a human B-lymphoblastoid line derived from Burkitt's lymphoma patient and K 562 derived from a human chronic myelogenous leukemia cell line. All cell lines were maintained in RPMI 1640 medium (Gibco Laboratories, Grand Island, N.Y.) supplemented with 10% fetal calf serum (FCS), 10 mM HEPES, 2 mM glutamine, 50 IU/mL penicillin, 50 μg/mL streptomycin, 0.1 mM non-essential amino acids and 1 mM sodium pyruvate and 0.5 μg/mL amphotericin B. Cells were cultured in a 5% CO2 atmosphere in a thermostatically maintained incubator (37° C.) in standard cell culture flasks. Cell cultures were split every 2-3 days and passage number noted.
(§3) Tumor cell lines (5×10^5 cells/well) and PBMC (1×10^6 cells/well) were cultured in 24-well plates in the presence or absence of various concentrations of digoxin or ouabain for 48 h. The cells were harvested, washed twice in PBS, and analyzed for induction of apoptosis by annexin V-FITC/propidium iodide (PI) method (BD Bioscience, Lincoln Park, N.J.) according to the manufacturer's instructions. Cells were washed once with 1× binding buffer and stained with annexin V-FITC (5 μL) and PI (10 μL) for 15 minutes in the dark. Apoptosis was determined by flow cytometric analyses on a FACScan (BD Biosciences, Lincoln Park, N.J.). Ten thousand cells were analyzed per sample. In experiments where the effect of PHA was studied, cells were seeded accordingly in a 24-well plate and stimulated with PHA (1 μg/mL) for a minimum of 2 hours before treatment with the indicated concentrations of ouabain or digoxin. As a positive control for apoptosis, cells were exposed to ultra violet irradiation for […] and apoptosis was analyzed according to the method described above.

Series [1] concerns caspase-3 activity in K 562 cells. Put plainly: DEVD-dependent caspase-3 activity, K 562. It is filed as cell-based, human. The following applies: 100 nM, 12 h. How it is done: (§4) Measurement of DEVD-dependent caspase-3 activity is a measure of induction of apoptosis, irrespective of the apoptotic pathway activated. The effect of digoxin (100 nM) to induce activation of caspase-3 activity in these tumor cell lines and as well as normal PBMC was examined. Tumor cells (1×10^7 cell/mL) and PBMC (1×10^7 cells/mL) were exposed to ultraviolet irradiation or digoxin (100 nM) for 12 h. The cells were then analyzed for caspase-3 activation using caspase-3 activation assay kit following the manufacturer's instructions.
(§5) Caspase-3 activity was measured using a caspase-3 assay kit (Sigma-Aldrich Co. St Louis, Mo.). Briefly, tumor cell lines (1×10^7 cells/mL), and PBMC (1×10^7 cells/mL) were cultured in the presence or absence of the indicated concentration of digoxin. Cells were harvested by centrifugation and washed once with PBS. Cells were lysed with lysis buffer (30 mM Tris-HCl, pH 7.5, 150 mM NaCl, 1% Triton X-100, and 10% glycerol) and were centrifuged to remove cell debris, Caspase 3 activity was assayed in the cell lysate according to the manufacturer's instructions. The colorimetric assay is based on spectrophotometric detection of chromophore pNA at 405 nm after cleavage from labelled substrate DEVD-pNA. The level of caspase 3 activity is interpolated from a calibration curve.

The subject of series [2] is Jurkat cells. The series can be described thus: Apoptosis after PHA stimulation, Jurkat. The series is classed as cell-based, human. The following applies: PHA 1 μg/mL, digoxin 10 nM and 100 nM, 48 h. How it is done:
as §3

The subject of the next series is PBMC. The series can be described thus: Apoptosis after PHA stimulation, PBMC. It is filed as cell-based, human. The following applies: PHA 1 μg/mL, digoxin 10 nM-100 nM, 48 h. As for the experimental part:
as §3

Series [3] deals with caspase-3 activity in Daudi cells. Put plainly: DEVD-dependent caspase-3 activity, Daudi. It is filed as cell-based, human. As to conditions: 100 nM, 12 h. As for the experimental part: as §4, §5
In series [4] the test system is caspase-3 activity in Jurkat cells. Put plainly: DEVD-dependent caspase-3 activity, Jurkat. It is filed as cell-based, human. The following applies: 100 nM, 12 h. As for the experimental part:
as §4, §5

The conditions of series [5]: Kometiani et al. 2005; cited from earlier work.
Series [6] addresses T1, porcine cerebral cortex Na,K-ATPase.
T1 construct: other: 50% response relative to the m
The series is classed as biochemical. The text has this:
In the current study, the sensitivity of cardiac glycosides on induction of apoptosis in lymphoblastic cancer cells was examined. The efficacy of digoxin and ouabain in inducing apoptosis in these cell lines was compared with NKA catalytic inhibition activity using porcine cerebral cortex (Table 1). The porcine cerebral cortex (PCC) is a model system known to express the three isoforms of NKA consisting of the three different alpha subunits (α1, α2 and α3) (Rose et al., Clin Chem, 40, 1674-1685 (1994)). The alpha subunit of the NKA contains the binding site of the cardiac glycosides, and like most cationic transporter proteins, the beta subunit act as chaperon, stabilizing the correct assembly of the alpha subunit and facilitating the delivery of the protein to the plasma membrane (Blanco et al., Am J Physiol, 275 (Renal Physiol. 44), F633-F650 (1998)).
In order to compare the concentrations of digoxin or ouabain that affect the induction of apoptosis with those that inhibit the sodium pump, the inhibitory potency of digoxin and ouabain on porcine cerebral cortex (PCC) Na.,K-ATPase catalytic activity was examined.
The values were calculated as 50% response relative to the maximum NKA activity on the PCC or maximum apoptosis on Jurkat and Daudi cells within the concentration ranges tested.
Inhibition of sodium pump catalytic activity by cardiac glycosides was measured by the release of phosphate upon hydrolysis of ATP (Qazzaz et al., Endocrinology, 141, 3200-3209 (2000)).

Series [7] deals with human lymphoblastic cell lines. Put plainly: Induction of apoptosis in the cancer cell lines (Jurkat and Daudi together). It is filed as cell-based. The following applies: read-out: concentration needed to induce a 50% apoptotic response. As for the experimental part: as §3
Series [8] has as its system caspase-3 activity in PBMC. Put plainly: DEVD-dependent caspase-3 activity, PBMC. It is filed as cell-based, human. The following applies: 100 nM, 12 h. As for the experimental part:
as §4, §5

Another series has as its system K 562 cells. Put plainly: Induction of apoptosis, annexin V-FITC/propidium iodide flow cytometry, K 562. The series is classed as cell-based, human. The following applies: increasing concentrations, 48 h. How it is done: as §1, with “1. […]” for “1.”
(§6) Tumor cell lines (5×10^5 cells/well) and PBMC (1×10^6 cells/well) were cultured in 24-well plates in the presence or absence of various concentrations of digoxin or ouabain for 48 h. The cells were harvested, washed twice in PBS, and analyzed for induction of apoptosis by annexin V-FITC/propidium iodide (PI) method (BD Bioscience, Lincoln Park, N.J.) according to the manufacturer's instructions. […] Apoptosis was determined by flow cytometric analyses on a FACScan (BD Biosciences, Lincoln Park, N.J.). Ten thousand cells were analyzed per sample. […]

The subject of series [9] is peripheral blood mononuclear cells (PBMC). The series can be described thus: Induction of apoptosis, annexin V-FITC/propidium iodide flow cytometry, PBMC. The series is classed as cell-based, human. As to conditions: increasing concentration, 48 h. As for the experimental part:
as §1, with “1. […]” for “1.”
as §6

The subject of series [10] is Jurkat cells. Put plainly: Induction of apoptosis, annexin V-FITC/propidium iodide flow cytometry, Jurkat. It is filed as cell-based, human. As to conditions: for IC50: Homo sapiens, Jurkat; for highest percentage of apoptosis / increase in apoptosis vs untreated control: Jurkat cells; for highest percentage of apoptosis: n=4; for increase in apoptosis vs untreated control: increasing concentration 10 nM-500 nM. How it is done:
as §1, §2, §3
Background: A flow cytometer gives signals particle by particle.

Setting [11] is: 50% response relative to the maximum NKA activity on the PCC, read-out: IC50, Inhibitory Potency on Porcine cerebral cortex (PCC) NKA catalytic activity.
The mark [12] stands for this setting: range of the IC50, read-out: Range of IC50, Inhibitory Potency on PCC NKA catalytic activity.
The mark [13] stands for this setting: 50% response relative to maximum apoptosis within the concentration ranges tested, 48 h, read-out: IC50, Induction of apoptosis on acute T-cell lymphoblastic leukemic cells (Jurkat).
[14] abbreviates: range of the IC50, read-out: Ranges of IC50, Induction of apoptosis on Jurkat.

Regarding `C[C@H]1O[C@@H](O[C@H]2[C@@H](O)C[C@H](O[C@H]3[C@@H](O)C[C@H](O[C@H]4CC[C@@]5(C)[C@H](CC[C@@H]6[C@@H]5C[C@@H](O)[C@]5(C)[C@@H](C7=CC(=O)OC7)CC[C@]65O)C4)O[C@@H]3C)O[C@@H]2C)C[C@H](O)[C@@H]1O` [Digoxin, digoxin], the “highest percentage of apoptosis” value in the series with Daudi cells (48 h) is 83.2±7.3% and 83.2%±7.3%; in the series with Jurkat cells [10] (500 nM, 48 h) it was 50.2±4.5% and 50.2%±4.5%. Moreover, the “increase in apoptosis vs untreated control” value in the series with Daudi cells (48 h) is “significantly (P<0.05) led to increase in apoptosis”; in the series with K 562 cells it was “neither digoxin nor ouabain significantly induced apoptosis; also recorded: did not significantly (P>0.05) lead to increases in apoptosis”; in [9], “neither digoxin nor ouabain significantly induced apoptosis; also recorded: did not significantly (P>0.05) lead to increase in apoptosis”; in the series with Jurkat cells [10] (48 h), “significantly (P<0.05) led to increases in apoptosis”. In addition, the IC50 with Daudi cells (48 h, read-out: IC50, Induction of apoptosis on B-cell Burkitt's lymphoma cells (Daudi)) was 48 nM; with Daudi cells (read-out: Ranges of IC50, Induction of apoptosis on Daudi), 35 to 65 nM; in [6] (setting [11]), 910 nM; in series [6] (setting [12]), 820 to 1010 nM; with Jurkat cells [10] (setting [13]), 24 nM; in the series with Jurkat cells [10] (setting [14]), 11 to 56 nM. The “caspase-3 activity relative to the untreated controls” value in series [1] is on record as “no such increases”; in series [3], 7 fold; in series [4], 8 fold; in series [8], “no such increases”. The “percent of apoptosis in the presence of PHA” value is “synergistically increased” with Jurkat cells [2], “synergistically induced apoptosis; also recorded: synergistically increased” with Jurkat cells [2] (listed as digoxin), “No such effect” in the series on PBMC and “No such synergistic effect; also recorded: no such synergistic increase” in the series with PBMC (listed as digoxin). For the same compound, in series [5], the “therapeutic concentrations in blood” value is “approximately 2 nM”. For the same compound, the EC50 in series [7] was 20 to 40 nM.

On to `C[C@@H]1O[C@@H](O[C@H]2C[C@@H](O)[C@]3(CO)[C@H]4[C@H](O)C[C@]5(C)[C@@H](C6=CC(=O)OC6)CC[C@]5(O)[C@@H]4CC[C@]3(O)C2)[C@H](O)[C@H](O)[C@H]1O` [Ouabain, ouabain], for which the “highest percentage of apoptosis” value in the series with Daudi cells (48 h) is 81.1±6.1%; in the series with Jurkat cells [10] (100 nM, 48 h), 47.6±3.9% and 47.6±5.6%. Further, the “increase in apoptosis vs untreated control” value in the series with Daudi cells (48 h) was “significantly (P<0.05) led to increase in apoptosis”; in the series on K 562 cells, “neither digoxin nor ouabain significantly induced apoptosis; also recorded: did not significantly (P>0.05) lead to increases in apoptosis”; in series [9] it was “neither digoxin nor ouabain significantly induced apoptosis; also recorded: did not significantly (P>0.05) lead to increase in apoptosis”; in the series on Jurkat cells [10] (48 h) it was “significantly (P<0.05) led to increases in apoptosis”. Moreover, the IC50 was 40 nM in the series on Daudi cells (50% response relative to maximum apoptosis within the concentration ranges tested, 48 h, read-out: IC50, Induction of apoptosis on B-cell Burkitt's lymphoma cells (Daudi)); 36 to 56 nM in the series on Daudi cells (range of the IC50, read-out: Ranges of IC50, Induction of apoptosis on Daudi); 600 nM in [6] (setting [11]); 550 to 650 nM in series [6] (setting [12]); 26 nM in the series with Jurkat cells [10] (setting [13]); 19 to 48 nM with Jurkat cells [10] (setting [14]). Moreover, the EC50 in series [7] (based on the maximum apoptosis at 500 nM, for each of the cancer cell lines) lay within 20 to 40 nM.
